Series [1] deals with Trypanosoma cruzi. Description: Trypanocidal activity against extracellular trypomastigote form of Trypanosoma cruzi IRHOD/CO/2008/SN3 after 24 hrs by Neubauer hemocytometric analysis. The series is classed as functional, organism-based. The settings on record: IRHOD/CO/2008/SN3, 24 h.
Series [2] deals with Trypanosoma cruzi. Description: Trypanocidal activity against intracellular amastigote form of Trypanosoma cruzi IRHOD/CO/2008/SN3 infected in African green monkey Vero cells after 72 hrs by Giemsa staining assay. It counts as functional, organism-based. The note with it: IRHOD/CO/2008/SN3, Vero.
Series [3] deals with Trypanosoma cruzi. Put plainly: Trypanocidal activity against extracellular epimastigote form of Trypanosoma cruzi IRHOD/CO/2008/SN3 after 72 hrs by Neubauer hemocytometric analysis. The note with it: IRHOD/CO/2008/SN3, 72 h. It counts as functional, organism-based.
Series [4] is described as follows: Selectivity index, ratio of IC50 for African green monkey Vero cells to IC50 for extracellular trypomastigote form of Trypanosoma cruzi IRHOD/CO/2008/SN3. It counts as toxicity, cell-based. The note with it: read-out: Ratio IC50.
Series [5] can be described thus: Selectivity index, ratio of IC50 for African green monkey Vero cells to IC50 for intracellular amastigote form of Trypanosoma cruzi IRHOD/CO/2008/SN3. The settings on record: read-out: Ratio IC50. It counts as toxicity, cell-based.
Series [6] in a line: Selectivity index, ratio of IC50 for African green monkey Vero cells to IC50 for extracellular epimastigote form of Trypanosoma cruzi IRHOD/CO/2008/SN3. It counts as toxicity, cell-based. The note with it: read-out: Ratio IC50.
The subject of the next series is Vero. Put plainly: Cytotoxicity against African green monkey Vero cells after 72 hrs by flow cytometric analysis. It counts as cell-based. The note with it: Chlorocebus sabaeus. On the technique in general: In flow cytometry, cells or beads pass a laser one at a time.
Series [7] concerns Trypanosoma cruzi. Put plainly: Trypanocidal activity against epimastigote form of Trypanosoma cruzi IRHOD/CO/2008/SN3 assessed as induction of ethanol production at IC25 after 96 hrs by NMR spectra analysis. The series is classed as functional, organism-based.
Series [8] deals with Trypanosoma cruzi. Description: Trypanocidal activity against epimastigote form of Trypanosoma cruzi IRHOD/CO/2008/SN3 assessed as inhibition of acetate excretion at IC25 after 96 hrs by NMR spectra analysis. It counts as functional, organism-based.
The subject of series [9] is Trypanosoma cruzi. Put plainly: Trypanocidal activity against epimastigote form of Trypanosoma cruzi IRHOD/CO/2008/SN3 assessed as inhibition of succinate excretion at IC25 after 96 hrs by NMR spectra analysis. It counts as functional, organism-based.
A short description of series [10]: Inhibition of Escherichia coli Mn-SOD assessed as reduction of nitrobluetetrazolium measured for 10 mins by spectrophotometric analysis.
A short description of series [11]: Inhibition of Fe-SOD in Trypanosoma cruzi IRHOD/CO/2008/SN3 epimastigotes assessed as reduction of nitrobluetetrazolium measured for 10 mins by spectrophotometric analysis.
Series [12] relates to Trypanosoma cruzi. Put plainly: Inhibition of Fe-SOD in Trypanosoma cruzi IRHOD/CO/2008/SN3 epimastigotes assessed as reduction of nitrobluetetrazolium at 12.5 to 25 uM measured for 10 mins by spectrophotometric analysis relative to control.
The subject of series [13] is Trypanosoma cruzi. Put plainly: Trypanocidal activity against epimastigote form of Trypanosoma cruzi IRHOD/CO/2008/SN3 assessed as appearance of swollen mitochondria at IC25 after 96 hrs by transmission electron microscopic analysis. The series is classed as functional, organism-based.
The subject of series [14] is Trypanosoma cruzi. Put plainly: Trypanocidal activity against epimastigote form of Trypanosoma cruzi IRHOD/CO/2008/SN3 assessed as disorganization of cytoplasm at IC25 after 96 hrs by transmission electron microscopic analysis. The series is classed as functional, organism-based.
The test system of series [15] is Trypanosoma cruzi. Put plainly: Trypanocidal activity against bloodstream trypomastigote form of Trypanosoma cruzi IRHOD/CO/2008/SN3 infected in BALB/c mouse assessed as reduction of anti-parasitic Ig-G level in serum at 5 mg/kg/day, ip administered for 5 days measured over 40 to 120 days post-infection by ELISA. It counts as functional, organism-based. Background: ELISA stands for enzyme-linked immunosorbent assay.

Series [16] has as its system Trypanosoma cruzi. Put plainly: Trypanocidal activity against bloodstream trypomastigote form of Trypanosoma cruzi IRHOD/CO/2008/SN3 infected in BALB/c mouse assessed as reduction of circulating parasite burden at 5 mg/kg, ip administered for 5 to 10 days measured 22 to 60 days post-infection by Neubauer hemocytometric analysis. Details: dose 5 mg/kg. It counts as functional, organism-based.

Series [17] deals with Trypanosoma cruzi. Description: Trypanocidal activity against trypomastigote form of Trypanosoma cruzi IRHOD/CO/2008/SN3 infected in African green monkey Vero cells assessed as inhibition of trypomastigotes released in culture medium at IC25 relative to control. It counts as functional.
Series [18] concerns Trypanosoma cruzi. Description: Trypanocidal activity against amastigote form of Trypanosoma cruzi IRHOD/CO/2008/SN3 infected in African green monkey Vero cells assessed as inhibition of amastigotes load per cell at IC25 preincubated for 12 hrs followed by compound washout measured after 10 days by Giemsa staining-based microscopic analysis relative to control. It counts as functional.

In series [19] the test system is Trypanosoma cruzi. Put plainly: Trypanocidal activity against amastigote form of Trypanosoma cruzi IRHOD/CO/2008/SN3 infected in African green monkey Vero cells assessed as inhibition of parasite infection rate at IC25 preincubated for 12 hrs followed by compound washout measured after 10 days by Giemsa staining-based microscopic analysis relative to control. The series is classed as functional.

The subject of series [20] is Trypanosoma cruzi. Description: Trypanocidal activity against epimastigote form of Trypanosoma cruzi IRHOD/CO/2008/SN3 assessed as inhibition of lactate excretion at IC25 after 96 hrs by NMR spectra analysis. It counts as functional, organism-based.
Series [21] concerns Trypanosoma cruzi. Put plainly: Trypanocidal activity against epimastigote form of Trypanosoma cruzi IRHOD/CO/2008/SN3 assessed as inhibition of alanine excretion at IC25 after 96 hrs by NMR spectra analysis. The series is classed as functional, organism-based.
Series [22] concerns Trypanosoma cruzi. Put plainly: Trypanocidal activity against epimastigote form of Trypanosoma cruzi IRHOD/CO/2008/SN3 assessed as loss of plasma membrane integrity at IC25 after 96 hrs by transmission electron microscopic analysis. It counts as functional, organism-based.
Series [23] relates to Trypanosoma cruzi. Description: Trypanocidal activity against epimastigote form of Trypanosoma cruzi IRHOD/CO/2008/SN3 assessed as excessive dilation of kinetoplast at IC25 after 96 hrs by transmission electron microscopic analysis. The series is classed as functional, organism-based.
In series [24] the test system is Trypanosoma cruzi. Put plainly: Trypanocidal activity against epimastigote form of Trypanosoma cruzi IRHOD/CO/2008/SN3 assessed as cytoplasmic vacuolization and disintegration at IC25 after 96 hrs by transmission electron microscopic analysis. The series is classed as functional, organism-based.
Series [25] concerns Trypanosoma cruzi. Put plainly: Trypanocidal activity against epimastigote form of Trypanosoma cruzi IRHOD/CO/2008/SN3 assessed as lysis of epimastigotes at IC25 after 96 hrs by transmission electron microscopic analysis. The series is classed as functional, organism-based.
In series [26] the test system is Mus musculus. Description: Hepatotoxicity in BALB/c mouse infected with bloodstream trypomastigote form of Trypanosoma cruzi IRHOD/CO/2008/SN3 assessed as presence of necrotic cells in portal space at 5 mg/kg/day, ip administered for 5 days measured 150 days post-infection by light microscopic analysis. It counts as toxicity, organism-based. Details: route intraperitoneal. The settings on record: in vivo, 3600 h.

For series [27], the system named is Mus musculus. Put plainly: Hepatotoxicity in BALB/c mouse infected with bloodstream trypomastigote form of Trypanosoma cruzi IRHOD/CO/2008/SN3 assessed as hepatic destruction in portal space at 5 mg/kg/day, ip administered for 5 days measured 150 days post-infection by light microscopic analysis. Details: route intraperitoneal. It counts as toxicity, organism-based. The note with it: in vivo, 3600 h.

Series [28] relates to Mus musculus. Description: Hepatotoxicity in BALB/c mouse infected with bloodstream trypomastigote form of Trypanosoma cruzi IRHOD/CO/2008/SN3 assessed as centrilobular destruction of hepatic vein at 5 mg/kg/day, ip administered for 5 days measured 150 days post-infection by light microscopic analysis. The series is classed as toxicity, organism-based. Details: route intraperitoneal. The note with it: in vivo, 3600 h.

The test system of series [29] is Mus musculus. Description: Hepatotoxicity in BALB/c mouse infected with bloodstream trypomastigote form of Trypanosoma cruzi IRHOD/CO/2008/SN3 assessed as lymphocytic infiltration in portal tracts at 5 mg/kg/day, ip administered for 5 days measured 150 days post-infection by light microscopic analysis. The note with it: in vivo, 3600 h. Set-up: route intraperitoneal. The series is classed as toxicity, organism-based.

Series [30] relates to Mus musculus. Put plainly: Hepatotoxicity in BALB/c mouse infected with bloodstream trypomastigote form of Trypanosoma cruzi IRHOD/CO/2008/SN3 assessed as vessels with thickened walls at 5 mg/kg/day, ip administered for 5 days measured 150 days post-infection by light microscopic analysis. It counts as toxicity, organism-based. Set-up: route intraperitoneal. The note with it: in vivo.

Series [31] relates to Mus musculus. Put plainly: Hepatotoxicity in BALB/c mouse infected with bloodstream trypomastigote form of Trypanosoma cruzi IRHOD/CO/2008/SN3 assessed as delocalized hepatic destruction at 5 mg/kg/day, ip administered for 5 days measured 150 days post-infection by light microscopic analysis. It counts as toxicity, organism-based. Set-up: route intraperitoneal. The note with it: in vivo, 3600 h.

Series [32] relates to Mus musculus. Description: Hepatotoxicity in BALB/c mouse infected with bloodstream trypomastigote form of Trypanosoma cruzi IRHOD/CO/2008/SN3 assessed as granuloma with lymphocytic infiltrate at 5 mg/kg/day, ip administered for 5 days measured 150 days post-infection by light microscopic analysis. It counts as toxicity, organism-based. Details: route intraperitoneal. The note with it: in vivo, 3600 h.

In series [33] the test system is Mus musculus. Description: Hepatotoxicity in BALB/c mouse infected with bloodstream trypomastigote form of Trypanosoma cruzi IRHOD/CO/2008/SN3 assessed as interstitial hemorrhage at 5 mg/kg/day, ip administered for 5 days measured 150 days post-infection by light microscopic analysis. It counts as toxicity, organism-based. Set-up: route intraperitoneal. The note with it: in vivo, 3600 h.

Active and inactive are the calls of the source. The rule behind the calls is not given here.

Take `NCCCNCCN1CCNCc2cccc(n2)CNCC1`: the half-inhibitory concentration (IC50) (commonly the concentration at which inhibition is half-maximal) in the series on Trypanosoma cruzi [1] stood at 27.6 µM; in the series with Trypanosoma cruzi [2], 20 µM; in the series with Trypanosoma cruzi [3], 21 µM; in the series on Vero, 167 µM. The selectivity ratio in series [4] was determined as 6.1; in series [5] it was 8.3; in series [6], 8.
On to `Cl.c1ccc(CNCCN2CCNCc3cccc(n3)CNCC2)nc1`, for which the 50% inhibitory concentration (IC50) stood at 18 µM with Trypanosoma cruzi [1]; 10 µM in the series on Trypanosoma cruzi [2]; 9 µM in the series with Trypanosoma cruzi [3]; 62.5 µM in series [10]; 8.2 µM in series [11]; 366 µM in the series on Vero. Also, the outcome in the series on Trypanosoma cruzi [7], with Trypanosoma cruzi [13], in the series with Trypanosoma cruzi [14], with Trypanosoma cruzi [15] and with Trypanosoma cruzi [16] was Active. Further, the inhibition entry with Trypanosoma cruzi [8], in the series on Trypanosoma cruzi [9], in the series on Trypanosoma cruzi [20] and in the series on Trypanosoma cruzi [21] was “Active” each time. In addition, the inhibition (in general, how much of the control response was suppressed) with Trypanosoma cruzi [12] turned out to be 100%. Moreover, the “inhibition (INH)” value with Trypanosoma cruzi [17] came to 82%; in the series with Trypanosoma cruzi [18], 60%; with Trypanosoma cruzi [19] it was 77%. Also, the selectivity ratio in series [4] was 20.3; in series [5], 36.4; in series [6], 42.2.
With `c1cc2nc(c1)CNCCN(CCNCc1cccc3ccccc13)CCNC2`, the concentration for half-maximal inhibition (IC50) in the series with Trypanosoma cruzi [1] is 19.5 µM; with Trypanosoma cruzi [2], 16.1 µM; in the series on Trypanosoma cruzi [3], 10 µM; in the series with Vero, 325 µM. The values for the selectivity ratio in series [4], in series [5] and in [6] were 16.7, 20.2 and 31.2, respectively.
As for `Br.NCCN1CCNCc2cccc(n2)CNCC1`, the IC50 stood at 16.3 µM with Trypanosoma cruzi [1]; 7.8 µM in the series on Trypanosoma cruzi [2]; 6.5 µM in the series on Trypanosoma cruzi [3]; 111 µM in series [10]; 12.5 µM in [11]; 270 µM in the series with Vero. For the same compound, the result in the series on Trypanosoma cruzi [7], with Trypanosoma cruzi [22], with Trypanosoma cruzi [23], in the series with Trypanosoma cruzi [24], in the series with Trypanosoma cruzi [25] and with Trypanosoma cruzi [15] was Active. The result in the series with Trypanosoma cruzi [16] was Active. For the same compound, the inhibition result in the series with Trypanosoma cruzi [8], in the series with Trypanosoma cruzi [9], in the series with Trypanosoma cruzi [20] and with Trypanosoma cruzi [21] was “Active” each time. Further, in the series with Trypanosoma cruzi [12], the inhibition was determined as 100%. Also, the entries for the “inhibition (INH)” value in the series on Trypanosoma cruzi [17], with Trypanosoma cruzi [18] and in the series on Trypanosoma cruzi [19] were 58%, 46% and 73%, respectively. Also, the selectivity ratio in series [4] is 16.5; in series [5], 34.5; in series [6] it was 41.4.
For the compound `O=C(Cn1ccnc1[N+](=O)[O-])NCc1ccccc1` [BENZNIDAZOLE], the IC50 in the series with Trypanosoma cruzi [1] worked out at 22.6 µM; in the series on Trypanosoma cruzi [2], 23 µM. Further, the Activity entry is on record as “Toxic” in the series with Mus musculus [26]; “Toxic” with Mus musculus [27]; “Non-toxic” in the series with Mus musculus [28]; “Non-toxic” in the series with Mus musculus [29]; “Non-toxic” with Mus musculus [30]; “Toxic” in the series with Mus musculus [31]. Besides, the Activity result in the series on Mus musculus [32] was “Toxic”; in the series on Mus musculus [33] it was “Non-toxic”. The result in the series with Trypanosoma cruzi [15] and in the series on Trypanosoma cruzi [16] was Active. Further, the “inhibition (INH)” value is 27% in the series on Trypanosoma cruzi [17], 12% in the series with Trypanosoma cruzi [18] and 39% with Trypanosoma cruzi [19].
